Results on twelve compounds are retold here after ChEMBL document CHEMBL1201862, “PubChem BioAssay data set” (2004).

Some test systems named below: SK-MEL-5; SNB-75; SN12C; MOLT-4; ACHN; NCI-H522; SR; SW-620; EKVX; MDA-N; A498; HOP-62; SK-OV-3; M14; 786-0; K562; SF-268; NCI-H226; RXF 393.
What all share (assay): inhibition of tumour cell growth, NCI panel, 48 h

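96-well plates; 48 h exposure; 5 concentrations. Endpoints by linear interpolation between flanking doses. Not reached: highest tested concentration assigned. Abbreviation: GI50, concentration required for 50% inhibition of growth.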 The source made the active and inactive calls. No stated cut-off is given here; in the data, active = GI50 up to about 1.1 µM and inactive = higher.

For the compound `COc1ccc(S(=O)(=O)NC(CCC(=O)NN)C(=O)NN)cc1` (centres undefined), the GI50 with SK-MEL-5, with SNB-75, in the assay on SN12C, in the assay on MOLT-4, with ACHN and in the assay on NCI-H522 was > 100 µM (inactive) throughout. For the same compound, the GI50 in the assay with SR, in the assay with SW-620, with EKVX, in the assay with MDA-N, in the assay with A498 and with HOP-62 was > 100 µM (inactive) throughout. The GI50 with SK-OV-3, with M14, in the assay on 786-0 and in the assay on K562 was > 100 µM (inactive) in each case.

Turning to `Clc1ccc(OCc2nnc(CCCCCCCCc3nnc(COc4ccc(Cl)cc4)o3)o2)cc1`, the GI50 in the assay on SK-MEL-5 was > 100 µM (inactive); in the assay on SNB-75 it was 68.2 µM (inactive); in the assay on SN12C it was 43.8 µM (inactive); with MOLT-4, 14.8 µM (inactive); in the assay on ACHN, > 100 µM (inactive); with NCI-H522 it was 31.8 µM (inactive). The GI50 is > 100 µM (inactive) in the assay on SW-620; > 100 µM (inactive) in the assay with EKVX; > 100 µM (inactive) with MDA-N; 32.3 µM (inactive) with SF-268; > 100 µM (inactive) with NCI-H226; > 100 µM (inactive) in the assay with A498. The GI50 is 47.3 µM (inactive) with RXF 393; 57.8 µM (inactive) in the assay with SK-OV-3; 89.7 µM (inactive) with M14; 31.8 µM (inactive) in the assay with 786-0; 48.1 µM (inactive) with K562.

With `CC(=O)OCC1OC(c2c(OC(C)=O)cc(C)c3c(=O)cc(/C(C(C)=O)=C(\C)O)oc23)C(OC(C)=O)C(OC(C)=O)C1OC(C)=O` (centres undefined), the GI50 in the assay with SK-MEL-5 is > 100 µM (inactive); in the assay on SNB-75, 49.5 µM (inactive); with SN12C, > 100 µM (inactive); in the assay on MOLT-4, > 100 µM (inactive); in the assay on ACHN, > 100 µM (inactive); with NCI-H522, > 100 µM (inactive). Further, the GI50 with SR is > 100 µM (inactive); in the assay with SW-620 it was > 100 µM (inactive); in the assay with EKVX it was > 100 µM (inactive); in the assay with MDA-N it was > 100 µM (inactive); in the assay with SF-268, 87.7 µM (inactive); in the assay with NCI-H226, > 100 µM (inactive). Moreover, the GI50 in the assay with HOP-62, in the assay on RXF 393, in the assay with SK-OV-3, in the assay with M14, with 786-0 and in the assay with K562 was > 100 µM (inactive) throughout.

With `CC1(C)CN=C(Nc2cccc(C(F)(F)F)c2)S1`, the GI50 in the assay on SK-MEL-5, in the assay with SNB-75, in the assay with SN12C, in the assay on MOLT-4, with ACHN and with NCI-H522 was > 100 µM (inactive) each time. Also, the GI50 is 40.2 µM (inactive) in the assay on SR; > 100 µM (inactive) in the assay with SW-620; > 100 µM (inactive) in the assay with EKVX; > 100 µM (inactive) with MDA-N; > 100 µM (inactive) in the assay with SF-268; > 100 µM (inactive) in the assay with NCI-H226. Also, the GI50 in the assay on HOP-62, in the assay on RXF 393, in the assay with SK-OV-3, with M14, in the assay on 786-0 and with K562 was > 100 µM (inactive) each time.

Regarding `COc1ccc(C(=O)N(C(=S)OCCOc2ccccc2)c2ccccc2)cc1`, the GI50 with SNB-75 was 1.63 µM (inactive); in the assay on SN12C it was 43.8 µM (inactive); in the assay with MOLT-4 it was 19.7 µM (inactive); in the assay with ACHN it was 44.9 µM (inactive); with NCI-H522, 23.7 µM (inactive); with SW-620, 50 µM (inactive). Further, the GI50 in the assay on EKVX was 31.6 µM (inactive); with MDA-N it was 35.1 µM (inactive); in the assay with SF-268, 44 µM (inactive); with A498 it was 18.4 µM (inactive); in the assay on HOP-62, 71.3 µM (inactive); with RXF 393 it was 26.5 µM (inactive). Moreover, the GI50 with SK-OV-3 is 52.7 µM (inactive); with M14, 43.3 µM (inactive); in the assay on 786-0 it was 47.9 µM (inactive); in the assay on K562 it was 23.8 µM (inactive).

Regarding `O=C(CN1CCOCC1)Nc1ccc2c(c1)C1Oc3ccccc3CC1CO2` (centres undefined), the GI50 was 58.9 µM (inactive) with SK-MEL-5; > 100 µM (inactive) with SN12C; 88.1 µM (inactive) with MOLT-4; > 100 µM (inactive) in the assay on ACHN; > 100 µM (inactive) in the assay with NCI-H522; > 100 µM (inactive) with SR. Further, the GI50 with SW-620, in the assay on EKVX, with MDA-N, in the assay with SF-268, in the assay with NCI-H226 and with A498 was > 100 µM (inactive) each time. The GI50 in the assay with HOP-62, with SK-OV-3, in the assay on M14, in the assay with 786-0 and in the assay on K562 was > 100 µM (inactive) each time.

For the compound `COc1cc(C2SCC(=O)N2c2ccc(NC(C)=O)cc2)cc(OC)c1OC` (centres undefined), the GI50 with SK-MEL-5 is > 100 µM (inactive); in the assay on SN12C it was 81.5 µM (inactive); in the assay with MOLT-4, 50.9 µM (inactive); with ACHN it was > 100 µM (inactive); in the assay on NCI-H522, 71.4 µM (inactive); in the assay with SR, 31.2 µM (inactive). For the same compound, the GI50 in the assay with SW-620 was > 100 µM (inactive); in the assay on EKVX it was > 100 µM (inactive); in the assay with MDA-N, 33.8 µM (inactive); in the assay with SF-268, > 100 µM (inactive); in the assay with NCI-H226, > 100 µM (inactive); in the assay on A498, > 100 µM (inactive). Moreover, the GI50 with SK-OV-3, in the assay on M14, with 786-0 and with K562 was > 100 µM (inactive) throughout.

`COc1ccc(Cc2c(N)[nH]c(=O)n(C)c2=O)cc1`: the GI50 in the assay on SK-MEL-5 is > 100 µM (inactive); in the assay with SNB-75, 11.9 µM (inactive); in the assay with SN12C, 42.8 µM (inactive); in the assay with ACHN it was > 100 µM (inactive); in the assay on NCI-H522 it was > 100 µM (inactive); in the assay with SW-620, > 100 µM (inactive). Also, the GI50 with EKVX is 10.6 µM (inactive); with MDA-N, > 100 µM (inactive); in the assay on SF-268 it was 34.6 µM (inactive); with NCI-H226, > 100 µM (inactive); in the assay with A498 it was > 100 µM (inactive); with HOP-62, 31.1 µM (inactive). The GI50 in the assay on RXF 393, in the assay with SK-OV-3, with M14, in the assay on 786-0 and in the assay with K562 was > 100 µM (inactive) in each case.

With `O=c1[nH]nc(Cc2ccccc2)n1Nc1ccccc1`, the GI50 in the assay with SK-MEL-5 is > 100 µM (inactive); with SNB-75, 17.2 µM (inactive); with SN12C, > 100 µM (inactive); in the assay on MOLT-4 it was > 100 µM (inactive); in the assay with ACHN, > 100 µM (inactive); in the assay with NCI-H522 it was > 100 µM (inactive). The GI50 in the assay with SR was > 100 µM (inactive); in the assay on SW-620, > 100 µM (inactive); with EKVX, > 100 µM (inactive); with MDA-N it was > 100 µM (inactive); with SF-268, 52 µM (inactive); with NCI-H226 it was > 100 µM (inactive). Also, the GI50 in the assay on A498, in the assay with HOP-62, with 786-0 and with K562 was > 100 µM (inactive) throughout.

As to `C[C@H](CCC1=NCCN1)[C@H]1CC[C@H]2[C@@H]3[C@H](O)C[C@@H]4C[C@H](O)CC[C@]4(C)[C@H]3CC[C@]12C`, the GI50 with SK-MEL-5 was 11.8 µM (inactive); with SNB-75, 10.6 µM (inactive); in the assay on SN12C, 21.1 µM (inactive); with MOLT-4, 11.1 µM (inactive); in the assay on ACHN, 16.4 µM (inactive); with NCI-H522, 14.7 µM (inactive). Also, the GI50 in the assay with SW-620 was 15.6 µM (inactive); in the assay on EKVX, 17.9 µM (inactive); in the assay on MDA-N it was 17.3 µM (inactive); in the assay on SF-268, 13.2 µM (inactive); in the assay with NCI-H226, 15 µM (inactive); with A498, 13.3 µM (inactive). In addition, the GI50 with HOP-62 is 16.1 µM (inactive); in the assay with RXF 393 it was 15.8 µM (inactive); in the assay with SK-OV-3, 19.1 µM (inactive); in the assay on M14 it was 15.3 µM (inactive); in the assay on 786-0, 14.6 µM (inactive); in the assay on K562, 6.3 µM (inactive).

Take `S=C1CC(c2ccccc2)Sc2ccccc2N1` (centres undefined): the GI50 was 66.8 µM (inactive) in the assay with SK-MEL-5; 20.9 µM (inactive) in the assay with SNB-75; 97.7 µM (inactive) in the assay on SN12C; 5.22 µM (inactive) in the assay with MOLT-4; 69 µM (inactive) in the assay with ACHN; 31.3 µM (inactive) with NCI-H522. Moreover, the GI50 in the assay with SR is > 100 µM (inactive); in the assay on EKVX, 72.8 µM (inactive); in the assay on MDA-N, 54 µM (inactive); with SF-268, 38.8 µM (inactive); in the assay on NCI-H226 it was > 100 µM (inactive); in the assay with HOP-62 it was 22.8 µM (inactive). Also, the GI50 is 28.4 µM (inactive) in the assay on RXF 393; 41.6 µM (inactive) in the assay on SK-OV-3; 45 µM (inactive) in the assay on M14; > 10 µM (inactive) in the assay on 786-0; > 100 µM (inactive) in the assay on K562.

On to `CCC1=CC2Cc3nc4cc(Cl)ccc4c(N)c3C(C1)C2` (centres undefined), for which the GI50 in the assay with SK-MEL-5 was 1.57 µM (inactive); with SNB-75 it was 6.35 µM (inactive); in the assay with SN12C, 12.5 µM (inactive); with MOLT-4, 0.822 µM (active); in the assay with ACHN, 7.8 µM (inactive); in the assay on NCI-H522, 7.5 µM (inactive). Besides, the GI50 in the assay with SW-620 was 8.91 µM (inactive); in the assay on EKVX, 3.18 µM (inactive); with MDA-N, 6.08 µM (inactive); in the assay on SF-268, 4.62 µM (inactive); in the assay on NCI-H226, 1.48 µM (inactive); with A498, 4.86 µM (inactive). In addition, the GI50 in the assay with HOP-62 is 8.2 µM (inactive); with RXF 393, 2.65 µM (inactive); in the assay on SK-OV-3 it was 12.1 µM (inactive); in the assay on M14, 1.54 µM (inactive); with 786-0 it was 5.04 µM (inactive); in the assay with K562, 2.58 µM (inactive).
